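Dose response: 5 concentrations. Exposure: 48 h. Format: 96-well plates. Endpoint: linear interpolation; highest concentration if not reached. Abbreviation: GI50, concentration required for 50% inhibition of growth.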 Activity calls are given as the source filed them. Rule as the data show it: active = GI50 up to about 1.1 µM and inactive = higher.
Legend:
Assay in all cases: NCI anticancer screen, dose series, 48 h
NCI/ADR-RES = tested on: NCI/ADR-RES
CAKI-1 = tested on: CAKI-1
BT-549 = tested on: BT-549
A549 = tested on: A549
SW-620 = tested on: SW-620
HCC 2998 = tested on: HCC 2998
HOP-92 = tested on: HOP-92
MDA-MB-435 = tested on: MDA-MB-435
KM12 = tested on: KM12
786-0 = tested on: 786-0
SK-OV-3 = tested on: SK-OV-3
SR = tested on: SR
OVCAR-4 = tested on: OVCAR-4
OVCAR-3 = tested on: OVCAR-3
IGROV-1 = tested on: IGROV-1
M14 = tested on: M14
MDA-N = tested on: MDA-N
UACC-62 = tested on: UACC-62
CCRF-CEM = tested on: CCRF-CEM
UACC-257 = tested on: UACC-257

For `CC(=O)NC1C(OCc2ccccc2)OC(CO)C(O)C1OCC(=O)N1CCCC1C(=O)N[C@@H](CCC(=O)NCCCCNc1c2ccccc2nc2cccc([N+](=O)[O-])c12)C(N)=O` (stereo not given in full), the GI50 (NCI/ADR-RES) was > 100 µM (inactive), the GI50 (CAKI-1) was > 100 µM (inactive) and the GI50 (BT-549) was 17.9 µM (inactive). The GI50 (A549) was 16 µM (inactive), the GI50 (SW-620) was 11.5 µM (inactive) and the GI50 (HCC 2998) was 16.1 µM (inactive). For the same compound, the GI50 (HOP-92) was 9.33 µM (inactive), the GI50 (MDA-MB-435) was 18 µM (inactive) and the GI50 (KM12) was 31.3 µM (inactive). The GI50 (786-0) was 46.1 µM (inactive), the GI50 (SK-OV-3) was 99.1 µM (inactive) and the GI50 (SR) was 20.1 µM (inactive). For the same compound, the GI50 (OVCAR-4) was 40.7 µM (inactive), the GI50 (OVCAR-3) was 21.6 µM (inactive) and the GI50 (IGROV-1) was 14.8 µM (inactive). For the same compound, the GI50 (M14) was 16 µM (inactive) and the GI50 (MDA-N) was 14.8 µM (inactive).
With `O=C(N/N=C/c1ccc(Cl)cc1)c1c(Cl)c(Cl)c(Cl)c(Cl)c1-c1nc2ccccc2[nH]1` the GI50 (NCI/ADR-RES) was > 100 µM (inactive), the GI50 (CAKI-1) was 46.2 µM (inactive) and the GI50 (BT-549) was > 100 µM (inactive). The GI50 (A549) was > 100 µM (inactive), the GI50 (SW-620) was > 100 µM (inactive) and the GI50 (HCC 2998) was 5.5 µM (inactive). For the same compound, the GI50 (HOP-92) was 23.6 µM (inactive), the GI50 (MDA-MB-435) was 74.3 µM (inactive) and the GI50 (KM12) was 8.36 µM (inactive). The GI50 (UACC-62) was 80.9 µM (inactive), the GI50 (786-0) was 28.6 µM (inactive) and the GI50 (CCRF-CEM) was 50.4 µM (inactive). For the same compound, the GI50 (SK-OV-3) was 0.0454 µM (active), the GI50 (SR) was 59.2 µM (inactive) and the GI50 (OVCAR-3) was > 100 µM (inactive). For the same compound, the GI50 (IGROV-1) was 59.3 µM (inactive), the GI50 (M14) was 86.5 µM (inactive) and the GI50 (MDA-N) was 56.8 µM (inactive).
In the case of `Oc1ccc(Cn2c(-c3ccc(O)c(O)c3)nc3ccccc32)cc1O`, the GI50 (NCI/ADR-RES) is reported as 32.9 µM (inactive), the GI50 (CAKI-1) is reported as 15.5 µM (inactive) and the GI50 (BT-549) is reported as 10.4 µM (inactive). For the same compound, the GI50 (A549) was 18.2 µM (inactive), the GI50 (SW-620) was 13.4 µM (inactive) and the GI50 (HCC 2998) was 13.9 µM (inactive). For the same compound, the GI50 (HOP-92) was 6.59 µM (inactive), the GI50 (MDA-MB-435) was 12.8 µM (inactive) and the GI50 (KM12) was 13.5 µM (inactive). For the same compound, the GI50 (786-0) was 9.44 µM (inactive), the GI50 (CCRF-CEM) was 3.37 µM (inactive) and the GI50 (SK-OV-3) was 18.6 µM (inactive). For the same compound, the GI50 (SR) was 3.72 µM (inactive), the GI50 (UACC-257) was 33 µM (inactive) and the GI50 (OVCAR-4) was 4.9 µM (inactive). For the same compound, the GI50 (OVCAR-3) was 14.4 µM (inactive), the GI50 (IGROV-1) was 11.9 µM (inactive) and the GI50 (M14) was 13.9 µM (inactive). For the same compound, the GI50 (MDA-N) was 15 µM (inactive).
In the case of `N[C@@H]1CCN(c2c(F)cc3c(=O)c(C(=O)O)cn4c3c2Oc2c-4ccc3c2ccc2ccccc23)C1`, the GI50 (NCI/ADR-RES) is reported as 23.2 µM (inactive), the GI50 (CAKI-1) is reported as 6.53 µM (inactive) and the GI50 (BT-549) is reported as > 100 µM (inactive). For the same compound, the GI50 (A549) was 2.39 µM (inactive), the GI50 (SW-620) was 0.671 µM (active) and the GI50 (HCC 2998) was 0.494 µM (active). For the same compound, the GI50 (HOP-92) was 2.13 µM (inactive), the GI50 (MDA-MB-435) was 3.03 µM (inactive) and the GI50 (KM12) was 4.38 µM (inactive). For the same compound, the GI50 (UACC-62) was 2.79 µM (inactive), the GI50 (786-0) was 0.412 µM (active) and the GI50 (SK-OV-3) was 7.46 µM (inactive). For the same compound, the GI50 (SR) was 0.225 µM (active), the GI50 (UACC-257) was 5.42 µM (inactive) and the GI50 (OVCAR-4) was 1.17 µM (inactive). For the same compound, the GI50 (OVCAR-3) was 21.5 µM (inactive), the GI50 (IGROV-1) was 0.413 µM (active) and the GI50 (M14) was 5.55 µM (inactive). The GI50 (MDA-N) was 1.55 µM (inactive).
With `O=C1C(c2c(O)[nH]c3ccc(F)cc23)=Nc2ccccc21` the GI50 (NCI/ADR-RES) was > 100 µM (inactive), the GI50 (CAKI-1) was > 100 µM (inactive) and the GI50 (BT-549) was > 100 µM (inactive). The GI50 (A549) was > 100 µM (inactive), the GI50 (SW-620) was > 100 µM (inactive) and the GI50 (HCC 2998) was > 100 µM (inactive). The GI50 (HOP-92) was 10.9 µM (inactive), the GI50 (MDA-MB-435) was > 100 µM (inactive) and the GI50 (KM12) was > 100 µM (inactive). For the same compound, the GI50 (UACC-62) was > 100 µM (inactive), the GI50 (786-0) was 4.85 µM (inactive) and the GI50 (CCRF-CEM) was 28 µM (inactive). The GI50 (SK-OV-3) was 6.24 µM (inactive), the GI50 (SR) was > 100 µM (inactive) and the GI50 (UACC-257) was > 100 µM (inactive). The GI50 (OVCAR-3) was > 100 µM (inactive), the GI50 (IGROV-1) was 1.03 µM (active) and the GI50 (M14) was > 100 µM (inactive). The GI50 (MDA-N) was > 100 µM (inactive).
In the case of `CC(C)=CCN1c2ccccc2[C@@]2(CC=C(C)C)CCN(C)[C@@H]12` [(+)-DEBROMOFLUSTRAMINE B], the GI50 (NCI/ADR-RES) is reported as 18.3 µM (inactive), the GI50 (CAKI-1) is reported as 26.8 µM (inactive) and the GI50 (BT-549) is reported as 21.9 µM (inactive). The GI50 (A549) was 36.1 µM (inactive), the GI50 (SW-620) was 26.7 µM (inactive) and the GI50 (HCC 2998) was 13.7 µM (inactive). For the same compound, the GI50 (HOP-92) was 32.7 µM (inactive), the GI50 (MDA-MB-435) was 21.1 µM (inactive) and the GI50 (KM12) was 24.5 µM (inactive). The GI50 (UACC-62) was 15.7 µM (inactive), the GI50 (786-0) was 19.2 µM (inactive) and the GI50 (CCRF-CEM) was 34.2 µM (inactive). For the same compound, the GI50 (SK-OV-3) was 24.4 µM (inactive), the GI50 (SR) was 33.4 µM (inactive) and the GI50 (UACC-257) was > 10 µM (inactive). For the same compound, the GI50 (OVCAR-4) was 35.6 µM (inactive), the GI50 (OVCAR-3) was 18.1 µM (inactive) and the GI50 (IGROV-1) was 21.6 µM (inactive). The GI50 (MDA-N) was 26.5 µM (inactive).
In the case of `C[C@@H]1O[C@@H](O[C@H]2CC[C@]3(C=O)[C@H]4CC[C@]5(C)[C@@H](c6ccc(=O)oc6)CC[C@]5(O)[C@@H]4CC[C@]3(O)C2)[C@H](O)[C@H](O)[C@H]1O[C@@H]1O[C@H](CO)[C@@H](O)[C@H](O)[C@H]1O` [HELLEBRIN], the GI50 (NCI/ADR-RES) is reported as 0.0152 µM (active), the GI50 (CAKI-1) is reported as 0.0121 µM (active) and the GI50 (BT-549) is reported as 0.00509 µM (active). The GI50 (SW-620) was 0.0375 µM (active), the GI50 (HCC 2998) was 0.0365 µM (active) and the GI50 (HOP-92) was 0.0402 µM (active). The GI50 (MDA-MB-435) was 0.0107 µM (active), the GI50 (KM12) was 0.0521 µM (active) and the GI50 (UACC-62) was 0.027 µM (active). For the same compound, the GI50 (786-0) was 0.00451 µM (active), the GI50 (CCRF-CEM) was 0.00445 µM (active) and the GI50 (SK-OV-3) was 0.0226 µM (active). The GI50 (SR) was 0.00601 µM (active), the GI50 (UACC-257) was 0.0243 µM (active) and the GI50 (OVCAR-4) was 0.00743 µM (active). The GI50 (OVCAR-3) was 0.00408 µM (active), the GI50 (IGROV-1) was 0.0183 µM (active) and the GI50 (M14) was 0.021 µM (active). For the same compound, the GI50 (MDA-N) was 0.0223 µM (active).

Source: ChEMBL document CHEMBL1201862, “PubChem BioAssay data set” (2004)
